Test [1] has as its system cucumber anthracnose (Colletotrichum lagenarium, CA). Kind of test: Fungicidal activity test against cucumber anthracnose in vivo. The following applies: 400 ppm spray on potted cucumber seedlings; visual assessment after 5 days.
For test [2], the system named is tomato late blight (Phytophthora infestans). Kind of test: microbe, parasite or virus in culture. The format is cell-based. The following applies: 240 h, read-out: control efficiency against tomato late blight (rate of fungi inhibition).
In test [3] the test system is beet armyworm (Laphygma exigua Hubner). Kind of test: Test against beet armyworm (leaf disc spray). It counts as in vivo. The following applies: Spodoptera exigua, foliar, 96 h, after 96 h; for mortality at 10 ppm / mortality at 1 ppm: third instar; for mortality at 0.3 ppm / mortality at 0.6 ppm: parallel test. The method, then: (§1) According to the solubility of test compounds, the compounds are dissolved in acetone or dimethyl sulfoxide, and then diluted with 0.1% aqueous solution of Tween 80 to form 50 ml test liquid, the content of acetone or dimethyl sulfoxide in the total solution is not more than 10%.
The cabbage leaves were perforated to get 1 cm diameter leaf discs by the hole puncher. Certain concentrations of test compounds were sprayed on both sides of the discs at the spray volume of 0.5 ml by Airbrush. Eight test insects (third instar) were introduced on each treatment after drying. Each treatment repeated 3 times. The treated discs were placed in a chamber of 24° C., 60%-70% relative humidity, no light. After 96 h, the number of surviving insects was investigated and the mortality was calculated.

In test [4] the test system is striped stem borer (Chilo suppressalis (Walker)). Kind of test: Test against striped stem borer (artificial feed film). The format is in vivo. The protocol: as §1
The 6 well culture plates were chosen, 5 mL artificial feed was added into each well. After the feed solidified, 0.2 mL solution of certain concentrations of test compounds was added into per well with a continuous sampler and made the uniform film in the feed surface. Eight regular health insects (second instar) were introduced on each treatment after drying. Each treatment was repeated for 4 times. The pure water was set as CK. The treated discs were placed in a chamber of 24° C., 60%-70% relative humidity and day light. After 72 h, the number of surviving insects was investigated and the mortality was calculated.

Test [5] relates to army worm (Mythimna separata). Kind of test: Test against army worm (corn leaf dip). It counts as in vivo. The following applies: foliar, third instar, after 72 h. The method, then: as §1
The middle part of fresh corn leaves were chosen and cut into 3 cm sects. The sects were dipped into the solution of certain concentration of test compounds for 10 seconds, dried and placed in 9 cm diameter Petri dish. Eight regular health insects (third instar) were introduced on each treatment. Each treatment was repeated for 4 times. The pure water was set as CK. The treated discs were placed in a chamber of 24° C., 60%-70% relative humidity and day light. After 72 h, the number of surviving insects was investigated and the mortality rates were calculated.

Test [6] has as its system Diamondback moth (Plutella xylostella). Kind of test: Test against diamondback moth (cabbage leaf disc dip). It counts as in vivo. The settings on record: foliar, third instar, after 72 h. The protocol: as §1
The leaves of cabbage grown in greenhouse were chosen, removed the surface waxy layer and perforated to get 2 cm diameter leaf discs by the hole puncher. The discs were dipped in a solution of certain concentrations of test compounds for 10 seconds, dried and placed in 9 cm diameter Petri dish. Eight regular health insects (third instar) were introduced on each treatment. Each treatment was repeated for 4 times. The pure water was set as CK. The treated discs were placed in a chamber of 24° C., 60%-70% relative humidity and day light. After 72 h, the number of surviving insects was investigated and the mortality was calculated.

Test [7] deals with rice leaf folder (Cnaphalocrocis medinalis Guenee). Kind of test: Field test against rice leaf folder. It counts as in vivo. The following applies: 168 h, spray 450 L/ha, after 7 d. The protocol: A certain concentrations of test compounds were sprayed on leaves at the time of hatching peak of rice leaf folder. Spay volume was 450 L/ha. The section area of rice was 32 m^2. Each treatment was repeated for 3 times. After 7d, the number of surviving insects was investigated and the mortality was calculated.

Test [8] has as its system armyworm (Mythimna seperata). The settings on record: 50 ppm; cited from earlier work.
Test [9] deals with fall armyworm (Spodoptera frugiperda). The following applies: 10 ppm; cited from earlier work.
[10] abbreviates: 10 ppm, read-out: mortality against beet armyworm.
Where [11] appears, read: 0.3 ppm, Table 3, read-out: Mortality (%) against beet armyworm.
The mark [12] stands for this setting: parallel test, Table 5, after 72 h.

Read-outs that look alike come from different tables or passages of the source. Where only a bound is given, the exact number is not on record here.

Usually inhibition stands for the relative decrease from the control value, in per cent. What is called mortality is the percentage killed. Turning to `CNC(=O)c1cc(Cl)cc(C)c1NC(=O)c1cc(C)nn1-c1ncc(Cl)cc1Cl` [Compound 1], the “protective controlling effect against cucumber anthracnose” value in test [1] is reported as “more than 90%”. Also, the inhibition at 25 ppm in [2] was above 90%. Also, in [3] (read-out: mortality against beet armyworm, 10 ppm), the mortality at 10 ppm was at least 90%.
Molecule `CNC(=O)c1cc(Cl)cc(C)c1NC(=O)c1cc(C(F)(F)F)nn1-c1ncc(Cl)cc1Cl` [Compound 3] yielded a mortality at 1 ppm in [3] of at least 90%. For the same molecule, the mortality at 10 ppm in [3] (setting [10]) is at least 90%.
On to `Cc1cc(Cl)cc(C(N)=O)c1NC(=O)c1cc(Br)nn1-c1ncc(Cl)cc1Cl` [Compound 15], for which the mortality at 10 ppm in test [3] (setting [10]) was at least 90%.
Consider `CNC(=O)c1cc(Cl)cc(C)c1NC(=O)c1cc(Br)nn1-c1ncc(Cl)cc1Cl` [Compound 18], for which the mortality at 10 ppm in test [4] (second instar, after 72 h) was at least 90%; in test [3] (setting [10]), at least 90%. Further, the mortality at 0.4 ppm in [5] was at least 90%. Further, the mortality at 0.3 ppm in test [3] (setting [11]) came to 50%; in [3] (0.3 ppm, Table 4, read-out: Mortality (%) against beet armyworm), 62%. Besides, the mortality at 0.6 ppm in test [3] (0.6 ppm, Table 4, read-out: Mortality (%) against beet armyworm) was 100%. In addition, the mortality at 1 ppm in test [3] was at least 90%.
In the case of `CNC(=O)c1cc(Cl)cc(Cl)c1NC(=O)c1cc(Br)nn1-c1ncc(Cl)cc1Cl` [Compound 19], the mortality at 0.8 ppm in test [6] is above 90%. In test [7], this molecule came in with a mortality at 30 g/ha of 56% and a mortality at 60 g/ha of 63%. In test [4] (setting [12]), this molecule gave a mortality at 5 ppm of 90% and a mortality at 10 ppm of 100%. The molecule further showed a mortality at 10 ppm in test [4] (second instar, after 72 h) of at least 90%. Moreover, the mortality at 0.4 ppm in test [5] is at least 90%. In [3] (setting [11]), the mortality at 0.3 ppm amounted to 87.5%. Besides, the mortality at 1 ppm in [3] was at least 90%. Further, in test [3] (setting [10]), the mortality at 10 ppm is at least 90%.
As to `CCNC(=O)c1cc(Cl)cc(C)c1NC(=O)c1cc(Br)nn1-c1ncc(Cl)cc1Cl` [Compound 22], the mortality at 1 ppm in test [3] is at least 90%. Further, in [3] (setting [10]), the mortality at 10 ppm is at least 90%.
As to `CNC(=O)c1cc(Cl)cc(C)c1NC(=O)c1cc(Br)nn1-c1ncc(Br)cc1Cl` [KC1, reference compound], in [8], the “insecticidal activity against armyworm” value is reported as “highly effective”. Further, the mortality at 0.3 ppm in [3] (read-out: Mortality (%) against beet armyworm, 0.3 ppm, Table 3) is 0%; in [3] (read-out: Mortality (%) against beet armyworm, 0.3 ppm, Table 4), 12.5%. The mortality at 0.6 ppm in test [3] (read-out: Mortality (%) against beet armyworm, 0.6 ppm, Table 4) was determined as 75.5%.
In test [7], `CNC(=O)c1cc(Cl)cc(C)c1NC(=O)c1cc(Br)nn1-c1ncccc1Cl` [KC2, chlorantraniliprole, reference compound] showed a mortality at 30 g/ha of 34% and a mortality at 60 g/ha of 52%. In test [4] (setting [12]), this molecule had a mortality at 5 ppm of 60% and a mortality at 10 ppm of 90%. Besides, the “insecticidal activity against fall armyworm” value in test [9] was “highly effective”.

Values taken from patent publication US8492409B2, “1-substituted pyridyl-pyrazolyl amide compounds and uses thereof” (Sinochem Corporation, priority 2008, dated 2013).
